According to EP0394122A2, “Use of tetracyclines to manufacture a medicament for the treatment and prevention of AIDS” (priority 1989, dated 1990):

Assays:
[1] = system: virus HIV (LAV-1-BRU); experiment: Protection against the cytopathogenic effect of HIV in infected CEM clone 13 cells (MTT viability); assay type: cell-based; details: day 7
Procedure: (§1) Le test est réalisé sur la lignée lymphoblastoïde CEM clone 13. Dans une microplaque de 96 puits on dépose 25 µl/puits d'une solution de produit à tester ou de tampon phosphate isotonique (TPI) dans le cas des contrôles. Les produits sont étudiés à différentes concentrations (souvent 8), à raison de 4 puits par concentration. On ajoute alors 125 µl d'une suspension de cellules CEM dans le milieu RPMI contenant 10 % de sérum de veau foetal, 40 U/ml de pénicilline, 40 µg/ml de streptomycine et 5 µg/ml de polybrène (3500 cellules par puits) et les microplaques sont incubées une heure à 37°C, sous une atmosphère contenant 5 % de gaz carbonique. Pour chaque concentration, l'essai est partagé en 2 parties : une partie sur cellules infectées, pour la détermination de l'activité antivirale et l'autre partie sur cellules non infectées, pour déterminer la cytotoxicité des produits. On infecte alors la première série avec HIV (100 µl par puit d'une suspension de virus LAV-1-BRU contenant 200-300 TCID50) tandis que l'autre série reçoit 100 µl de milieu RPMI tel que défini précédemment. Au bout de 7 jours d'incubation, 175 µl de surnageant sont prélevés et rejetés. La viabilité cellulaire est déterminée selon une modification de la technique décrite par R. Pauwels et coll., J. Virol. Meth., 20, 309-321 (1988).
(§2) Les puits, contenant encore les cellules (infectées ou non infectées), reçoivent 10 µl d'une solution de MTT (méthylthiazoletétrazolium) à 5 mg/ml dans du tampon phosphate isotonique. Pendant une période d'incubation de 4 heures, le MTT est converti en un sel de formazan (bleu) à l'intérieur des cellules vivantes et proportionnellement à leur nombre, alors que rien n'apparaît dans les puits ne contenant plus que des cellules mortes. On ajoute alors 120 µl d'isopropanol (contenant 0,04 mole/l d'acide chlorhydrique) et les microplaques sont agitées jusqu'à la solubilisation du bleu de formazan. L'absorption à 540 nm est lue avec un lecteur automatique de réactions ELISA en microplaques.
(§3) Pour les essais de plus longue durée, on procède comme décrit précédemment jusqu'au jour 7. A ce moment, 100 µl de cellules sont prélevés pour mesurer la proportion de cellules vivantes et le restant est remis en culture avec du milieu frais contenant les produits aux mêmes concentrations. Cette opération est répétée tous les 4 jours.

[2] = system: lignée lymphoblastoïde CEM clone 13; experiment: Cytotoxicity on non-infected CEM clone 13 cells (MTT viability); assay type: cell-based, humaines; details: day 7
Procedure: as §1, with “Dans” for “Le test est réalisé sur la lignée lymphoblastoïde CEM clone 13. Dans”, “Virol.” for “Virol. Meth., 20, 309-321 (1988).”
as §2, §3

Compound | Cellules infectées Densité optique ([1]; 0,01 µg/ml) | Cellules infectées Densité optique ([1]; 0,04 µg/ml) | Cellules infectées Densité optique ([1]; 0,12 µg/ml) | Cellules infectées Densité optique ([1]; 0,37 µg/ml) | Cellules infectées Densité optique ([1]; 10 µg/ml) | Cellules infectées Densité optique ([1]; 30 µg/ml) | Cellules infectées Densité optique ([1]; 1,11 µg/ml) | Cellules infectées Densité optique ([1]; 3,33 µg/ml) | Cellules non infectées Densité optique ([2]; 0,01 µg/ml) | Cellules non infectées Densité optique ([2]; 0,04 µg/ml) | Cellules non infectées Densité optique ([2]; 0,12 µg/ml) | Cellules non infectées Densité optique ([2]; 0,37 µg/ml) | Cellules non infectées Densité optique ([2]; 10 µg/ml) | Cellules non infectées Densité optique ([2]; 30 µg/ml) | Cellules non infectées Densité optique ([2]; 1,11 µg/ml) | Cellules non infectées Densité optique ([2]; 3,33 µg/ml) | also measured
lymecycline [Exemple 4] | 0,75 | 1,25 | 1,21 | 1,20 | 1,55 | 1,05 | 1,28 | 1,40 | 1,75 | 1,80 | 1,90 | 1,75 | 1,85 | 1,05 | 1,80 | 1,85 | 
CN(C)C1C(=O)C(C(N)=O)=C(O)C2(O)C(=O)C3=C(O)c4c(O)cccc4C(C)(O)C3CC12 (stereo not drawn) [Exemple 1, tétracycline] |  |  |  |  |  |  |  |  |  |  |  |  |  |  |  |  | Cellules infectées Densité optique ([1]; 0,03 µg/ml): 0,350; Cellules infectées Densité optique ([1]; 0,08 µg/ml): 0,350; Cellules infectées Densité optique ([1]; 0,25 µg/ml): 0,340; Cellules infectées Densité optique ([1]; 0,74 µg/ml): 0,420; Cellules infectées Densité optique ([1]; 20 µg/ml): 0,400; Cellules infectées Densité optique ([1]; 60 µg/ml): 0,1; Cellules infectées Densité optique ([1]; 2,22 µg/ml): 0,510; Cellules infectées Densité optique ([1]; 6,67 µg/ml): 0,620; Cellules non infectées Densité optique ([2]; 0,03 µg/ml): 1,025; Cellules non infectées Densité optique ([2]; 0,08 µg/ml): 1,080; Cellules non infectées Densité optique ([2]; 0,25 µg/ml): 1,050; Cellules non infectées Densité optique ([2]; 0,74 µg/ml): 1,100; Cellules non infectées Densité optique ([2]; 20 µg/ml): 0,460; Cellules non infectées Densité optique ([2]; 60 µg/ml): 0,1; Cellules non infectées Densité optique ([2]; 2,22 µg/ml): 1,040; Cellules non infectées Densité optique ([2]; 6,67 µg/ml): 0,900
C=C1c2cccc(O)c2C(O)=C2C(=O)C3(O)C(O)=C(C(N)=O)C(=O)C(N(C)C)C3C(O)C12 (stereo not drawn) [Exemple 3, métacycline] | 0,570 | 0,640 | 0,680 | 0,730 | 0,770 | 0,1 | 0,780 | 1,060 | 1,100 | 1,380 | 1,300 | 1,230 | 0,960 | 0,1 | 1,180 | 1,320 | 
